Assay results as given in patent US10570168B2, “2′ and/or 5′ amino-acid ester phosphoramidate 3′-deoxy adenosine derivatives as anti- cancer compounds” (NuCana plc, priority 2014, dated 2020).
Where two headings read alike, the source gives them in different places. One block for each compound: values may come before it.

Tests used:
Assay in all cases: Solid tumour and haematological malignancy assay (CellTiterGlo)
Assay type in all cases: cell-based
KG-1 = conditions: Homo sapiens; for IC50: read-out: IC50 (absolute IC50); for Emax: read-out: MI %
In short: (§1)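 72 hr compound treatment, duplicates, 0.5% DMSO final; readout CellTiterGlo.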

HEL92.1.7 = conditions: Homo sapiens; for IC50: read-out: IC50 (absolute IC50); for Emax: read-out: MI %
In short: as §1

HepG2 = conditions: Homo sapiens; for IC50: read-out: IC50 (absolute IC50); for Emax: read-out: MI %
In short: as §1

MiaPaCa-2 = conditions: Homo sapiens; for IC50: read-out: IC50 (absolute IC50); for Emax: read-out: MI %
In short: as §1

K562 = conditions: Homo sapiens; for IC50: read-out: IC50 (absolute IC50); for Emax: read-out: MI %
In short: as §1

CCRFCEM = conditions: Homo sapiens, CCRF-CEM; for IC50: read-out: IC50 (absolute IC50); for Emax: read-out: MI %
In short: as §1

HT29 = conditions: Homo sapiens; for IC50: read-out: IC50 (absolute IC50); for Emax: read-out: MI %
In short: as §1

HL-60 = conditions: Homo sapiens; for IC50: read-out: IC50 (absolute IC50); for Emax: read-out: MI %
In short: as §1

MCF7 = conditions: Homo sapiens; for IC50: read-out: IC50 (absolute IC50); for Emax: read-out: MI %
In short: as §1

MOLT-4 = conditions: Homo sapiens; for IC50: read-out: IC50 (absolute IC50); for Emax: read-out: MI %
In short: (§2)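 Cells were exposed to compound for 72 hr under standard growth conditions, and viability was then read by CellTiterGlo luminescence. Treatment used a 9-point, 3.16-fold titration in duplicate, with a lowest final concentration of 19.9 nM and 0.5% final DMSO.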

NCI-H929 = conditions: Homo sapiens; for IC50: read-out: IC50 (absolute IC50); for Emax: read-out: MI %
In short: as §2

BxPC-3 = conditions: Homo sapiens, read-out: IC50 (absolute IC50)
In short: as §2

HS445 = conditions: for IC50: read-out: IC50 (absolute IC50); for Emax: read-out: MI %
In short: as §2

THP-1 = conditions: Homo sapiens; for IC50: read-out: IC50 (absolute IC50); for Emax: read-out: MI %
In short: as §2

SW620 = conditions: Homo sapiens; for IC50: read-out: IC50 (absolute IC50); for Emax: read-out: MI %
In short: as §2

MV4-11 = conditions: Homo sapiens; for IC50: read-out: IC50 (absolute IC50); for Emax: read-out: MI %
In short: as §2

RL = conditions: Homo sapiens; for IC50: read-out: IC50 (absolute IC50); for Emax: read-out: MI %
In short: as §2

Jurkat = conditions: Homo sapiens, read-out: IC50 (absolute IC50)
In short: as §2

RPMI-8226 = conditions: Homo sapiens; for IC50: read-out: IC50 (absolute IC50); for Emax: read-out: MI %
In short: as §2

Z138 = conditions: Homo sapiens; for IC50: read-out: IC50 (absolute IC50); for Emax: read-out: MI %
In short: as §2

SMILES: C[C@H](NP(=O)(OC[C@@H]1CC(O)[C@H](n2cnc3c(N)ncnc32)O1)Oc1ccccc1)C(=O)OCc1ccccc1 (stereo partly drawn) [Compound A, 3′-deoxyadenosine-5′-O-[phenyl(benzyloxy-L-alaninyl)] phosphate]
IC50 (KG-1; KG-1, 72 h): 15 to 100 µM | Emax (KG-1; KG-1, 72 h): 100% | IC50 (HEL92.1.7; HEL 92.1.7, 72 h): 5 to 15 µM | Emax (HEL92.1.7; HEL 92.1.7, 72 h): 100% | IC50 (HepG2; HepG2, 72 h): 15 to 100 µM | Emax (HepG2; HepG2, 72 h): 75% | IC50 (MiaPaCa-2; MIA PaCa-2, 72 h): 5 to 15 µM | Emax (MiaPaCa-2; MIA PaCa-2, 72 h): 96% | IC50 (K562; K562, 72 h): 0.1 to 5 µM | Emax (K562; K562, 72 h): 96% | IC50 (CCRFCEM; 72 h): 0.1 to 5 µM | Emax (CCRFCEM; 72 h): 100% | IC50 (HT29; HT-29, 72 h): 5 to 15 µM | Emax (HT29; HT-29, 72 h): 93% | IC50 (HL-60; HL-60, 72 h): 5 to 15 µM | Emax (HL-60; HL-60, 72 h): 99% | IC50 (MCF7; MCF7, 72 h): 0.1 to 5 µM | Emax (MCF7; MCF7, 72 h): 99% | IC50 (MOLT-4; MOLT-4, 72 h): 0.1 to 5 µM | Emax (MOLT-4; MOLT-4, 72 h): 98% | IC50 (NCI-H929; NCI-H929, 72 h): 5 to 15 µM | Emax (NCI-H929; NCI-H929, 72 h): 100% | IC50 (BxPC-3; BXPC-3, 72 h): 15 to 100 µM | IC50 (HS445; Hs 445, 72 h): 15 to 100 µM | Emax (HS445; Hs 445, 72 h): 98% | IC50 (THP-1; THP-1, 72 h): 15 to 100 µM | Emax (THP-1; THP-1, 72 h): 74% | IC50 (SW620; SW-620, 72 h): 15 to 100 µM | Emax (SW620; SW-620, 72 h): 85% | IC50 (MV4-11; MV4-11, 72 h): 0.1 to 5 µM | Emax (MV4-11; MV4-11, 72 h): 99% | IC50 (RL; 72 h): 0.1 to 5 µM | Emax (RL; 72 h): 93% | IC50 (Jurkat; 72 h): 0.1 to 5 µM | IC50 (RPMI-8226; RPMI-8226, 72 h): 5 to 15 µM | Emax (RPMI-8226; RPMI-8226, 72 h): 96% | IC50 (Z138; Z-138, 72 h): 15 to 100 µM | Emax (Z138; Z-138, 72 h): 95%

IC50 (KG-1; KG-1, 72 hr): > 100 µM | IC50 (HEL92.1.7; HEL 92.1.7, HEL92.1.7, 72 hr): 15 to 100 µM | IC50 (HepG2; HepG2, 72 hr): > 100 µM | IC50 (MiaPaCa-2; MIA PaCa-2, MiaPaCa-2, 72 hr): > 100 µM | IC50 (K562; K562, 72 hr): 15 to 100 µM | IC50 (CCRFCEM; CCRFCEM, 72 hr): > 100 µM | IC50 (HT29; HT-29, HT29, 72 hr): > 100 µM | IC50 (HL-60; HL-60, 72 hr): > 100 µM | IC50 (MCF7; MCF7, 72 hr): > 100 µM | IC50 (MOLT-4; MOLT-4, 72 hr): > 100 µM | IC50 (NCI-H929; NCI-H929, 72 hr): > 100 µM | IC50 (BxPC-3; BxPC-3, 72 hr): > 100 µM | IC50 (HS445; Hs 445, HS445, 72 hr): > 100 µM | IC50 (THP-1; THP-1, 72 hr): > 100 µM | IC50 (SW620; SW-620, SW620, 72 hr): > 100 µM | IC50 (MV4-11; MV4-11, 72 hr): > 100 µM | IC50 (RL; 72 hr): > 100 µM | IC50 (Jurkat; 72 hr): > 100 µM | IC50 (RPMI-8226; RPMI-8226, 72 hr): > 100 µM | IC50 (Z138; Z-138, Z138, 72 hr): 5 to 15 µM
SMILES: Nc1ncnc2c1ncn2[C@@H]1O[C@H](CO)C[C@H]1O [Cordycepin, 3′-deoxyadenosine, reference compound]
Emax (KG-1; KG-1, 72 hr): 69% | Emax (HEL92.1.7; HEL 92.1.7, HEL92.1.7, 72 hr): 88% | Emax (HepG2; HepG2, 72 hr): 13% | Emax (MiaPaCa-2; MIA PaCa-2, MiaPaCa-2, 72 hr): 35% | Emax (K562; K562, 72 hr): 78% | Emax (CCRFCEM; CCRFCEM, 72 hr): 41% | Emax (HT29; HT-29, HT29, 72 hr): 44% | Emax (HL-60; HL-60, 72 hr): 61% | Emax (MCF7; MCF7, 72 hr): 77% | Emax (MOLT-4; MOLT-4, 72 hr): 46% | Emax (NCI-H929; NCI-H929, 72 hr): 24% | Emax (HS445; Hs 445, HS445, 72 hr): 2% | Emax (THP-1; THP-1, 72 hr): -3% | Emax (SW620; SW-620, SW620, 72 hr): 10% | Emax (MV4-11; MV4-11, 72 hr): 1% | Emax (RL; 72 hr): 17% | Emax (RPMI-8226; RPMI-8226, 72 hr): 1% | Emax (Z138; Z-138, Z138, 72 hr): 95%
